Source: patent US6262106A, “Adamantanecarboximidamide derivatives and their use as NMDA antagonists” (priority 1998, dated 2001)
Where a name gives a salt, the structure may show the parent alone.

What was measured:
[1] = test system: PCP site of the NMDA receptor (cortical NMDA receptors); test: NMDA receptor binding, [3H]-MK-801 displacement at PCP site, rat cortical membranes; conditions: for Ratio: (IC50 Cortex / IC50 Cerebellum); for IC50: rat cortex membranes, [3H]-MK-801 5 nM, 10 μM glutamate, 10 μM glycine, 120 min, room temperature
Description: (§1) The NMDA receptor contains several distinct binding domains that can regulate opening of the cationic channel. The phencyclidine (PCP) site of the NMDA receptor can be radiolabelled with [^3 H]-(+)-5-methyl-10,11-dihydro-5H-dibenzo[a,d]cyclohepten-5,10-imine hydrogen maleate, [^3 H-MK-801]. The following describes the procedure for determining the affinity of compounds for the PCP site in rat cortical or cerebellar membranes.
(§2) Frozen rat cortex or cerebellum, homogenized in 10 volumes of ice-cold 0.32-M. sucrose is centrifuged at 1,000 g for 12 min and the supernatant stored on ice whilst the pellet is resuspended, rehomogenized and recentrifuged twice more. The three final supernatants are pooled and centrifuged at 30,000 g for 40 min at 4° C. to yield P2 pellets. These are resuspended in ice-cold distilled water, and centrifuged at 30,000 g for 50 min at 4° C. Following three further washes in distilled water, the P2 pellets are stored at -20° C. for at least 18 h. On the day of the assay, membrane pellets are thawed at room temperature, resuspended in ice-cold distilled water and centrifuged at 30,000 g for 20 min. The pellets are resuspended in 50-mM tris-HCl (pH:7.4) and recentrifuged twice more before being resuspended in tris-HCl for immediate use in the assay. Binding assays are performed at equilibrium in a total volume of 200 μL, containing [^3 H]-MK-801 (5-nM final conc.), 10-μM glutamate, 10-μM glycine, 160 μL of membrane preparation and additional drugs where appropriate. Non-specific binding is determined using MK-801 (10-μM). The assay is incubated for 120 min at room temperature. The incubation is terminated by rapid filtration through Whatman GF/B filters (pre-soaked in 0.1% PEI solution). The assay tubes and filters are washed five times with 1 mL of ice-cold assay buffer. The filters are placed in poly-Q mini vials with approximately 5 mL of scintillation fluid. The vials are then shaken and left for at least 8 h before being counted on a liquid scintillation counter. To determine the free ligand concentration 3 aliquots (20 μL) of the [^3 H]-MK-801 working solution are also counted. Concentration response data for drugs is analysed using a 4 parameter equation fitted by non-linear regression. This yields the half maximally effective drug concentration (IC50) and Hill coefficient.

[2] = target: PCP site of the NMDA receptor (cerebellar NMDA receptors); test: NMDA receptor binding, [3H]-MK-801 displacement at PCP site, rat cerebellar membranes; conditions: rat cerebellum membranes; [3H]-MK-801 5 nM; 10 μM glutamate, 10 μM glycine; 120 min, room temperature
Description: as §1, §2

[3] = known NMDA antagonists, administration; cited from earlier work

| SMILES | Ratio [1] | IC50 [1] [µM] | IC50 [2] [µM] | side effects [3] |
| --- | --- | --- | --- | --- |
| Cc1ccc(C2(C(=N)N)C3CC4CC(C3)CC2C4)cc1 (stereo not shown) [Example 4, 2-(4-Methylphenyl)-2-adamantanecarboximidamide hydrochloride] | 1.9 | 105 | 56 | – |
| COc1ccc(C2(C(=N)N)C3CC4CC(C3)CC2C4)cc1 (stereo not shown) [Example 8, 2-(4-Methoxyphenyl)-2-adamantanecarboximidamide hydrochloride] | 2.0 | 45 | 22 | – |
| Cc1ccccc1C1(C(=N)N)C2CC3CC(C2)CC1C3.Cl (stereo not shown) [Example 5, 2-(2-Methylphenyl)-2-adamantanecarboximidamide hydrochloride] | 1.7 | 53 | 31 | – |
| N=C(N)C1(c2ccc(Cl)cc2)C2CC3CC(C2)CC1C3 (stereo not shown) [Example 7, 2-(4-Chlorophenyl)-2-adamantanecarboximidamide hydrochloride] | 1.7 | 59 | 34 | – |
| CCc1cccc(N(C)C(N)=Nc2cccc3ccccc23)c1 [Cerestat] | – | – | – | perceptual and cognitive disturbances of a kind that resemble naturally-occurring psychotic states |
| c1ccc(C2(N3CCCCC3)CCCCC2)cc1 [PCP, phencyclidine] | – | – | – | perceptual and cognitive disturbances of a kind that resemble naturally-occurring psychotic states |
| CNC1(c2ccccc2Cl)CCCCC1=O (stereo not shown) [Ketamine] | – | – | – | perceptual and cognitive disturbances of a kind that resemble naturally-occurring psychotic states |
| C[C@]12N[C@H](Cc3ccccc31)c1ccccc12 [Dizocilpine] | – | – | – | perceptual and cognitive disturbances of a kind that resemble naturally-occurring psychotic states |
| N=C(N)C1(c2ccc(F)cc2)C2CC3CC(C2)CC1C3 (stereo not shown) [Example 6, 2-(4-Fluorophenyl)-2-adamantanecarboximidamide hydrochloride] | 1.8 | 44 | 25 | – |
